Where a name gives a salt, the structure may show the parent alone.
Tests used:
Assay type in all cases: binding
Details in all cases: His-tagged TEAD protein, biotinylated lipid pocket probe
TEAD2 = TEAD2 (Homo sapiens, UniProt Q15562); test: TEAD lipid pocket TR-FRET (Lipid HTRF) competition assay, TEAD2
Protocol: (§1) His-tagged TEAD proteins are pre-incubated with TEAD project compounds for 30 minutes at room temperature. Biotinylated lipid pocket probes are then added to the TEAD/Compound mixture and incubated for 60 minutes at room temperature. The lipid pocket probe competes with the test compound for the TEAD lipid pocket until equilibrium is reached. After 60 minutes, Europium labelled anti-His (Perkin Elmer #ADO 110) and XL665 labelled streptavidin (CIS Bio 610SAXAC) are added to the TEAD/test compound/lipid pocket mixture and incubated for 30 minutes. TR-FRET values are then measured using an EnVision multi-label plate reader (Perkin Elmer Cat #2104-1A.) If the lipid pocket probe binds to TEAD as expected, a TR-FRET signal results from the proximity of Tani-His Eu and XL665. If a TEAD lipid pocket binder such as binds and displaces the lipid pocket probe, the disruption of the TEAD:probe interaction results in a decrease in TR-FRET signal. The potency of compounds as TEAD lipid pocket binders is determined by IC50 value generated using a non-linear 4 parameter curve fit. This assay format enables more sensitive determinations of lipid pocket affinity than the aforementioned TEAD lipid pocket FP assay due to the decreased concentration of TEAD protein required for the TR-FRET assay format.

TEAD4 = TEAD4 (Homo sapiens, UniProt Q15561); test: TEAD lipid pocket TR-FRET (Lipid HTRF) competition assay, TEAD4
Protocol: as §1

TEAD3 = TEAD3 (Homo sapiens, UniProt Q99594); test: TEAD lipid pocket TR-FRET (Lipid HTRF) competition assay, TEAD3
Protocol: as §1

TEAD1 = TEAD1 (Homo sapiens, UniProt P28347); test: TEAD lipid pocket TR-FRET (Lipid HTRF) competition assay, TEAD1
Protocol: as §1

Chain of TEAD4 (Q15561 whole entry, species assumed): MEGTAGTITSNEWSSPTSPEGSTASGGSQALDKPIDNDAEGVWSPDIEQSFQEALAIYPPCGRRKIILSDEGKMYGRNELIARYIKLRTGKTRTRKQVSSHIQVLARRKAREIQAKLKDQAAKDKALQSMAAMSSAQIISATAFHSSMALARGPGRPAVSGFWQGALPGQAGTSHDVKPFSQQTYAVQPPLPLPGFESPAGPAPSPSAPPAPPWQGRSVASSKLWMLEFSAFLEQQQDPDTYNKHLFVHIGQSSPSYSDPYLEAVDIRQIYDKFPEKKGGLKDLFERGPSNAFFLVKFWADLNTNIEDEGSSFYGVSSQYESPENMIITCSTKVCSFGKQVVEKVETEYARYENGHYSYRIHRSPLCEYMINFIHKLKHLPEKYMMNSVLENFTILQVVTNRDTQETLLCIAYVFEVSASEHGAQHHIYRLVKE
Chain of TEAD1 (P28347 whole entry, species assumed): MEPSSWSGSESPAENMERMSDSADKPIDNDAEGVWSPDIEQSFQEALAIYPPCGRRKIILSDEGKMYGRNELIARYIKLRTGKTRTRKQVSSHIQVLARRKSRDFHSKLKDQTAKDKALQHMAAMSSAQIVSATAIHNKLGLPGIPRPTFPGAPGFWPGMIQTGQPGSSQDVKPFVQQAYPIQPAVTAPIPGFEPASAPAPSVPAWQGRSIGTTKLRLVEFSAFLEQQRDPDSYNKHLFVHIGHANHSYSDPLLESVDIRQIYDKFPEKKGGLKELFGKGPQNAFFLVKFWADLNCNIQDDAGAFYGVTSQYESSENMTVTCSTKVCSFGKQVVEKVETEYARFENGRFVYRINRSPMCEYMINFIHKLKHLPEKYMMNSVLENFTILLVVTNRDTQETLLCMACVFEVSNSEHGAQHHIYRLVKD
Chain of TEAD3 (Q99594 whole entry, species assumed): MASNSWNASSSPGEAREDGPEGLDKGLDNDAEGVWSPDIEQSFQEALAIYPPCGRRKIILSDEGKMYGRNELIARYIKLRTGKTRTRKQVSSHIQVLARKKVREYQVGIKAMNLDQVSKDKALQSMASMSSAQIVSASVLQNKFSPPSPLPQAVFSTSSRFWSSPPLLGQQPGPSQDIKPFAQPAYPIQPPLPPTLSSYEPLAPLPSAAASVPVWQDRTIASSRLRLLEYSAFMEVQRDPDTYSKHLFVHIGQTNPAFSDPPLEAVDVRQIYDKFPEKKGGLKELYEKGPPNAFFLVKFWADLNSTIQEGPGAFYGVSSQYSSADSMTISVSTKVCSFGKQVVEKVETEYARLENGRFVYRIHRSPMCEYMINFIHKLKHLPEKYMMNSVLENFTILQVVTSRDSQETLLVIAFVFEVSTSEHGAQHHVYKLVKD
Chain of TEAD2 (Q15562 whole entry, species assumed): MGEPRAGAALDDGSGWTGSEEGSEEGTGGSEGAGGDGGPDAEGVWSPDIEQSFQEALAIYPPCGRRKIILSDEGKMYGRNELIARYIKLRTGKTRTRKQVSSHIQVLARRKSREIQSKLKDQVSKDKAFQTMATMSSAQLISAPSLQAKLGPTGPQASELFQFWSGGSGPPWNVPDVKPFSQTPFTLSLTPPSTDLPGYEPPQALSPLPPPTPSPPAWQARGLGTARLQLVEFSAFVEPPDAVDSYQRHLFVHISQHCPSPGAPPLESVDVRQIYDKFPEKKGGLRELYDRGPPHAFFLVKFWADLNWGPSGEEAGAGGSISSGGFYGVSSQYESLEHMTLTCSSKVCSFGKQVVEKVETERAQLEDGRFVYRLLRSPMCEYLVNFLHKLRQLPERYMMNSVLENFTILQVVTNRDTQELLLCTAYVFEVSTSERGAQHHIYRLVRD

SMILES | IC50 (TEAD2) | IC50 (TEAD4) | IC50 (TEAD3) | IC50 (TEAD1)
COc1cnc(C(=O)NCc2cccc(CC(=O)NCCOCCOCCOCC(=O)N[C@H](C(=O)N3C[C@H](O)C[C@H]3C(=O)NCc3ccc(-c4scnc4C)cc3)C(C)(C)C)c2)cc1/C=C/[C@H]1CC[C@H](C(F)(F)F)CC1 [Compound 15, N-(3-((S)-16-((2S,4R)-4-Hydroxy-2-((4-(4-methylthiazol-5-yl)benzyl)carbamoyl)pyrrolidine-1-carbonyl)-17,17-dimethyl-2,14-dioxo-6,9,12-trioxa-3,15-diazaoctadecyl)benzyl)-5-methoxy-4-((E)-2-(trans-4-(trifluoromethyl)cyclohexyl)vinyl)picolinamide] | 380 nM | 170 nM | 3630 nM | 600 nM
CN[C@@H](C)C(=O)N[C@H](C(=O)N1CCC[C@H]1C(=O)Nc1sc(NC(=O)COCCOCCOCCOCCN(C)C(=O)Cc2cccc(CNC(=O)c3cc(/C=C/[C@H]4CC[C@H](C(F)(F)F)CC4)c(OC)cn3)c2)nc1-c1ccccc1)C1CCCCC1 [Compound 18, N-(3-(17-((5-((S)-1-((S)-2-Cyclohexyl-2-((S)-2-(methylamino)propanamido)acetyl)pyrrolidine-2-carboxamido)-4-phenylthiazol-2-yl)amino)-3-methyl-2,17-dioxo-6,9,12,15-tetraoxa-3-azaheptadecyl)benzyl)-5-methoxy-4-((E)-2-(trans-4-(trifluoromethyl)cyclohexyl)vinyl)picolinamide] | 490 nM | 140 nM | 4800 nM | 600 nM
CN[C@@H](C)C(=O)N[C@H](C(=O)N1CCC[C@H]1C(=O)Nc1sc(NC(=O)COCCOCCOCCOCCOCCN(C)C(=O)Cc2cccc(CNC(=O)c3cc(/C=C/[C@H]4CC[C@H](C(F)(F)F)CC4)c(OC)cn3)c2)nc1-c1ccccc1)C1CCCCC1 [Compound 19, N-(3-(20-((5-((S)-1-((S)-2-Cyclohexyl-2-((S)-2-(methylamino)propanamido)acetyl)pyrrolidine-2-carboxamido)-4-phenylthiazol-2-yl)amino)-3-methyl-2,20-dioxo-6,9,12,15,18-pentaoxa-3-azaicosyl)benzyl)-5-methoxy-4-((E)-2-(trans-4-(trifluoromethyl)cyclohexyl)vinyl)picolinamide] | 360 nM | 140 nM | 4100 nM | 540 nM
CN[C@@H](C)C(=O)N[C@H](C(=O)N1CCC[C@H]1C(=O)Nc1sc(NC(=O)CCCN(C)C(=O)Cc2cccc(CNC(=O)c3cc(/C=C/[C@H]4CC[C@H](C(F)(F)F)CC4)c(OC)cn3)c2)nc1-c1ccccc1)C1CCCCC1 [Compound 21, N-(3-(2-((4-((5-((S)-1-((S)-2-Cyclohexyl-2-((S)-2-(methylamino)propanamido)acetyl)pyrrolidine-2-carboxamido)-4-phenylthiazol-2-yl)amino)-4-oxobutyl)(methyl)amino)-2-oxoethyl)benzyl)-5-methoxy-4-((E)-2-(trans-4-(trifluoromethyl)cyclohexyl)vinyl)picolinamide] | 1000 nM | 430 nM | 6200 nM | 1300 nM

Now those with a lower IC50 (TEAD2), led by results:

IC50 (TEAD2) | IC50 (TEAD4) | IC50 (TEAD3) | IC50 (TEAD1) | SMILES
340 nM | 130 nM | 4300 nM | 510 nM | CN[C@@H](C)C(=O)N[C@H](C(=O)N1CCC[C@H]1C(=O)Nc1sc(NC(=O)COCCOCCOCCOCCOCCOCCN(C)C(=O)Cc2cccc(CNC(=O)c3cc(/C=C/[C@H]4CC[C@H](C(F)(F)F)CC4)c(OC)cn3)c2)nc1-c1ccccc1)C1CCCCC1 [Compound 20, N-(3-(23-((5-((S)-1-((S)-2-Cyclohexyl-2-((S)-2-(methylamino)propanamido)acetyl)pyrrolidine-2-carboxamido)-4-phenylthiazol-2-yl)amino)-3-methyl-2,23-dioxo-6,9,12,15,18,21-hexaoxa-3-azatricosyl)benzyl)-5-methoxy-4-((E)-2-(trans-4-(trifluoromethyl)cyclohexyl)vinyl)picolinamide formate]
160 nM | 60 nM | 2570 nM | 350 nM | COc1cnc(C(=O)NCc2cccc(CC(=O)NCCOCCOCCOCCOCC(=O)N[C@H](C(=O)N3C[C@H](O)C[C@H]3C(=O)NCc3ccc(-c4scnc4C)cc3)C(C)(C)C)c2)cc1/C=C/[C@H]1CC[C@H](C(F)(F)F)CC1 [Compound 16, N-(3-((S)-19-((2S,4R)-4-Hydroxy-2-((4-(4-methylthiazol-5-yl)benzyl)carbamoyl)pyrrolidine-1-carbonyl)-20,20-dimethyl-2,17-dioxo-6,9,12,15-tetraoxa-3,18-diazahenicosyl)benzyl)-5-methoxy-4-((E)-2-(trans-4-(trifluoromethyl)cyclohexyl)vinyl)picolinamide]
90 nM | 40 nM | 1500 nM | 280 nM | COc1cnc(C(=O)NCc2cccc(CC(=O)NCCOCCOCCOCCOCCOCC(=O)N[C@H](C(=O)N3C[C@H](O)C[C@H]3C(=O)NCc3ccc(-c4scnc4C)cc3)C(C)(C)C)c2)cc1/C=C/[C@H]1CC[C@H](C(F)(F)F)CC1 [Compound 17, N-(3-((S)-22-((2S,4R)-4-Hydroxy-2-((4-(4-methylthiazol-5-yl)benzyl)carbamoyl)pyrrolidine-1-carbonyl)-23,23-dimethyl-2,20-dioxo-6,9,12,15,18-pentaoxa-3,21-diazatetracosyl)benzyl)-5-methoxy-4-((E)-2-(trans-4-(trifluoromethyl)cyclohexyl)vinyl)picolinamide]
